The values that follow come from US11213506B2, “Combination therapy for the treatment or prevention of tumours” (QBIOTICS PTY LTD, priority 2017, dated 2022).

Assay [1] has as its system B16-OVA cells. In words: Lactate dehydrogenase (LDH) release assay. The assay is classed as cell-based, mouse. The conditions noted are these: 300 μM and 500 μM. As for the experimental part: (§1) A431 (human epidermoid carcinoma), MM649 (human melanoma), B16-OVA (B16-F10 mouse melanoma cell line stably transfected with chicken ovalbumin), MM415 (human melanoma) and FaDu (human hypopharyngeal carcinoma) cells were cultured in RPMI-1640, 10% FCS (complete medium) at 37° C., 5% CO2 in a humidified incubator. All cell lines used in this study were confirmed as mycoplasma negative using MycoAlert (Lonza). STR profiling was also performed to confirm the identity of the human cell lines used.
Measuring the release of LDH is a well-recognised assay to assess plasma membrane permeabilisation and detect cell death by necrosis (Chan et al. 2013). Three cell lines (A431, MM649 and B16-OVA) were used in these assays. Cells were plated at a density of 10,000 cells per well into clear 96-well plates (Corning, #3595; 100 μl of complete media) and the resultant plates incubated overnight as previously detailed. The following day, media was aspirated from each well and 50 μl of fresh medium was inserted. Stock solutions of Compound 1 were diluted to 2× final assay concentrations (1 mM and 600 μM) and 50 μl of these dilutions added to the required wells. […] OD490 nm and OD690 nm readings were recorded for each sample using a Hybrid Synergy H4 plate reader. Absorbance readings from drug treated samples were normalized to detergent treated controls to determine the % LDH release per well.

The subject of assay [2] is B16-OVA cells. In words: Calreticulin externalization assay (flow cytometry). The assay is classed as cell-based, mouse. The settings on record: within 60 minutes of treatment. The method, then: Calreticulin externalization was determined as previously detailed (Gomez-Cadena et al. 2016). Briefly, cells (A431, MM649, B16-OVA) cultured in complete medium at 37° C., 5% CO2 were detached via trypsinisation, centrifuged at 1,200 rpm and washed ×2 with fresh medium. After an additional round of centrifugation, the resultant cell pellet was resuspended at a concentration of 1×10^6 cells/ml, after which epoxytigliane was added to a final concentration of 500 or 300 μM. Ethanol only controls were also performed. Cell suspensions were incubated at 37° C., 5% CO2 and at the indicated timepoints, 200 μl of sample was removed and incubated with LIVE/DEAD fixable far red stain for 5 mins on ice. Following this, cells were pelleted at 1,200 rpm for 4 mins and washed ×1 with PBS. 500 μl of PBS, 0.25% formaldehyde was then added to each pellet to perform a light fixation without compromising plasma membrane integrity. […]
Samples were gated by FSC-H v FSC-A first to identify single cells, after which the LIVE/DEAD stain (Ex: 640 nm, Em: 670/14) negative (intact cell) population was analysed for green fluorescence (Ex: 488 nm, Em: 530/30; calreticulin externalization). Mean fluorescence intensity values were subsequently determined and graphed versus time.
For orientation: In flow cytometry, cells or beads pass a laser one at a time.

The next assay has as its system FaDu cells. In words: IncuCyte cytotoxicity assay (propidium iodide). The assay is classed as cell-based, human. The settings on record: 500 μM. The method, then:
as §1
(§2) Four cancer cell lines (A431, MM649 (human melanoma), FaDu (HNSCC) and MM415 (human melanoma) were assessed for their response to epoxytigliane treatment. Cells were plated at a density of 10,000 cells per well (100 μl of complete media) into clear bottom black 96-well plates (Corning, #3603). Following 24 h incubation, the media within each well was aspirated and replaced with 50 μl of fresh media containing 1 μg/ml propidium iodide (PI). Stock solutions (20 mg/ml in ethanol) of four epoxytiglianes (Compounds 1, 2, 3 and 4) were diluted to 2× final assay concentration (1 mM) in identical media and inserted into a U-bottom 96 well plate in preparation for transfer. 50 μl of dilution was added to the required wells and the resultant plates inserted into an Essen Biosciences IncuCyte in preparation for imaging. Images were acquired at various time points (30 min, 1 h and at hourly intervals) for a total of 24 h.

Another assay deals with A431 cells. As to the kind of experiment: IncuCyte cytotoxicity assay (propidium iodide). The assay is classed as cell-based, human. The settings on record: 500 μM. The method, then: as §1, §2
The test system of another assay is MM649 cells. In words: IncuCyte cytotoxicity assay (propidium iodide). The assay is classed as cell-based, human. The conditions noted are these: 500 μM. As for the experimental part:
as §1, §2

The subject of another assay is MM415 cells. In words: IncuCyte cytotoxicity assay (propidium iodide). The assay is classed as cell-based, human. The conditions noted are these: 500 μM. The method, then: as §1, §2
Assay [3] relates to B16-OVA cells. In words: HMGB1 release assay (ELISA). The assay is classed as cell-based, mouse. The conditions noted are these: 120 minutes. As for the experimental part: A431 (human epidermoid carcinoma), MM649 (human melanoma) and B16-OVA (B16-F10 mouse melanoma cell line stably transfected with chicken ovalbumin) were cultured in RPMI-1640, 10% FCS (complete medium) at 37° C., 5% CO2 in a humidified incubator. BMDCs were cultured in R10 media (RPMI, 10% FCS, 2 mM glutamine, 50 μM beta-mercaptoethanol, Pen/Strep). All cell lines used in this study were confirmed as mycoplasma negative using MycoAlert (Lonza). STR profiling was also performed to confirm the identity of the human cell lines used.
Cell lines (A431, MM649 and B16-OVA) were plated into T75 cm^2 flasks (Nunc) in 10 ml of complete media and cultured at 37° C., 5% CO2 until they reached 90% confluency. Compounds 1, 2, 3 and 4 were diluted in 5 ml of identical media to a final concentration of 500 and 300 μM and then administered to the cells. Several flasks were prepared such that a kinetic curve of HMGB1 release in response to drug treatment could be established. Ethanol only controls were also generated. At the required timepoint, media was removed from the flask into a 10 ml polypropylene tube that was placed on ice for 5 mins. […] OD450 nm values were determined using a Hybrid Synergy H4 plate reader (BioTek). Absorbance values from drug treated samples were normalized to vehicle treated samples to determine the fold increase in HMGB1 release in response to epoxytigliane treatment.

Where [4] appears, read: after 120 minutes, majority of cells.
Setting [5] is: differing extents and kinetics of onset.

Molecules are shown by their SMILES.

Turning to `C/C=C(\C)C(=O)O[C@@H]1[C@@H](C)[C@@]2(O)[C@H]([C@@H]3C(C)(C)[C@]13OC(=O)[C@@H](C)CC)[C@@H]1O[C@]1(CO)[C@@H](O)[C@]1(O)C(=O)C(C)=C[C@H]12` [Compound 1, 12-tigloyl-13-(2-methylbutanoyl)-6,7-epoxy-4,5,9,12,13,20-hexahydroxy-1-tiglien-3-one], the “LDH release compared to the controls” value in the assay on B16-OVA cells [1] is reported as “significant release of LDH”. Further, the “calreticulin externalisation (mean fluorescence intensity)” value in the assay on B16-OVA cells [2] is listed as “significant increases in mean fluorescence intensity”. Besides, the “propidium iodide staining (loss of plasma membrane integrity)” value in the assay on FaDu cells (setting [4]), in the assay with A431 cells (setting [4]), in the assay with MM649 cells (setting [4]) and with MM415 cells (setting [4]) was “strong red staining” each time. The “cell morphology (cytoplasmic swelling, blistering)” value is “significant cytoplasmic swelling and ‘blistering’” in the assay on FaDu cells (setting [5]); “significant cytoplasmic swelling and ‘blistering’” with A431 cells (setting [5]); “significant cytoplasmic swelling and ‘blistering’” with MM649 cells (setting [5]); “significant cytoplasmic swelling and ‘blistering’” with MM415 cells (setting [5]). Moreover, in the assay with B16-OVA cells [3], the “fold increase in HMBG1 release, normalised to vehicle treated cells” value is “greater than 3 fold”.
